Experimental data as given in ChEMBL document CHEMBL1201862, “PubChem BioAssay data set” (2004).
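Exposure lasted 48 hours, with cells grown in 96-well plates and compounds tested at five concentrations. GI50 marks 50% less growth.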 Active and inactive are the calls of the source. Cut-off read from the data, not from the text of the source: active = GI50 up to about 1.1 µM and inactive = higher.

Experiments:
Assay in all cases: DTP human tumour cell line panel, 48 h
[1] = system: T47D
[2] = system: XF498
[3] = system: DMS-114
[4] = system: HOP-18
[5] = system: M19-MEL
[6] = system: DMS-273
[7] = system: SNB-78
[8] = system: DLD-1

## CC1(C)[C@@H]2CC[C@]1(C)[C@H](OC(=O)/C=C/c1ccccc1)C2
[1]
  GI50: 15.9 µM (inactive)

## Cc1ccc([C@@H]2[C@@H](C(=O)c3ccccn3)[C@H](c3ccc(C)cc3)C[C@](O)(c3ccccn3)[C@H]2C(=O)c2ccccn2)cc1
[1]
  GI50: 7.73 µM (inactive)

## CC(=O)O[C@H]1CC[C@@]2(C)C(=CC[C@@H]3[C@@H]2CC[C@](C)(c2nnc(C)o2)[C@H]3CC#N)C1
[1]
  GI50: > 100 µM (inactive)

## O=C(CSc1nnc(-c2ccc(/N=C\c3ccc(Cl)cc3)cc2)o1)Nc1ccccc1Cl
[2]
  GI50: > 100 µM (inactive)
[3]
  GI50: > 100 µM (inactive)
[4]
  GI50: > 100 µM (inactive)
[5]
  GI50: > 100 µM (inactive)
[6]
  GI50: > 100 µM (inactive)
[7]
  GI50: 60.8 µM (inactive)

## COC1OC(CBr)C(OC(=O)c2ccccc2)C(O)C1Br (configuration not stated)
[8]
  GI50: > 100 µM (inactive)
[2]
  GI50: > 10 µM (inactive)
[4]
  GI50: > 100 µM (inactive)
[5]
  GI50: > 100 µM (inactive)
[6]
  GI50: > 100 µM (inactive)
[7]
  GI50: > 100 µM (inactive)

## CCCn1c(=O)c(N2CCN(c3ccccc3)CC2)nc2sc3ccccc3c21
[1]
  GI50: > 100 µM (inactive)

## O=[N+]([O-])c1cc(C(F)(F)F)ccc1S(=O)(=O)N[C@@H]1CCCC[C@H]1NS(=O)(=O)c1ccc(C(F)(F)F)cc1[N+](=O)[O-]
[1]
  GI50: 3.13 µM (inactive)

## FC(F)(Sc1ccccc1)c1nc2ccccc2o1
[1]
  GI50: > 100 µM (inactive)

## CN(C(=N)c1ccccc1)c1ccccc1
[8]
  GI50: > 100 µM (inactive)
[4]
  GI50: > 100 µM (inactive)
[5]
  GI50: > 100 µM (inactive)
[6]
  GI50: > 100 µM (inactive)
[7]
  GI50: > 100 µM (inactive)

## O=C(CSc1nnc(Cc2ccccc2)o1)Nc1cccc(Cl)c1
[8]
  GI50: > 100 µM (inactive)
[4]
  GI50: 87.1 µM (inactive)
[5]
  GI50: > 100 µM (inactive)
[6]
  GI50: 83 µM (inactive)
[7]
  GI50: > 100 µM (inactive)

## O=C(/C=C/c1ccccc1)CSc1nc2ccc(I)cc2c(=O)n1Cc1ccccc1
[1]
  GI50: 9.16 µM (inactive)

## CC1(c2ccccc2)CC(c2ccccc2)=NO1 (configuration not stated)
[8]
  GI50: > 100 µM (inactive)
[3]
  GI50: > 100 µM (inactive)
[4]
  GI50: > 100 µM (inactive)
[5]
  GI50: > 100 µM (inactive)
[6]
  GI50: > 100 µM (inactive)
[7]
  GI50: > 100 µM (inactive)

## Nc1nc2c(=O)c3ccccc3sc2s1
[1]
  GI50: 69 µM (inactive)

## C#C[C@]1(O)CC[C@H]2[C@@H]3CCC4=C/C(=N/NC(=O)c5cccc6c(=O)c7ccccc7[nH]c56)CCC4[C@H]3CC[C@@]21C (some centres not stated)
[1]
  GI50: 30.8 µM (inactive)

## CCCC(=O)C1=C(O)C(Cc2c(O)c(C)c(O)c(C(=O)CCC)c2O)=C(O)C(C)(C)C1=O
[1]
  GI50: 49.2 µM (inactive)

## COC(=O)C/N=C1\NC(=S)N(Cc2ccc(OC)cc2)C12CCCC2
[1]
  GI50: > 100 µM (inactive)

## CCC(Nc1ncnc2nc[nH]c12)C(=O)O (configuration not stated)
[1]
  GI50: > 100 µM (inactive)

## CCOC(=O)c1ccc(C(=O)/C(C(C)=O)=C2\CCCN2C)n1C
[1]
  GI50: 15.8 µM (inactive)

## O=C(/C=C/C=C/c1ccccc1)CCc1ccccc1
[1]
  GI50: 53.3 µM (inactive)

## COC12COC(=O)C1C(c1ccc3c(c1)OCO3)c1cc3c(cc1O2)OCO3 (configuration not stated)
[1]
  GI50: 24.2 µM (inactive)

## C#CCOC(=O)c1ccccc1OC(C)=O
[1]
  GI50: > 100 µM (inactive)

## O=c1c2cc(Br)cc(Br)c2[nH]c(=S)n1-c1ccc(/N=N/c2ccc(O)c3cccnc23)cc1
[1]
  GI50: 38.2 µM (inactive)

## O=c1cc(-c2ccncc2)[nH]c2cc3c(cc12)OCO3
[1]
  GI50: > 100 µM (inactive)

## C/C(=N\NC(=O)c1ccccc1O)c1c(O)cc(C)oc1=O
[8]
  GI50: 49.8 µM (inactive)
[3]
  GI50: 90.6 µM (inactive)
[4]
  GI50: 27.2 µM (inactive)
[5]
  GI50: 83.4 µM (inactive)
[7]
  GI50: > 100 µM (inactive)

## Cn1c(=O)cc(Nc2ccc(N)cc2)[nH]c1=O
[1]
  GI50: > 100 µM (inactive)

## N#CCCN(CCCN(CCCN(C(=O)Nc1ccccc1)c1ccccc1)C(=O)Nc1ccccc1)C(=O)Nc1ccccc1
[1]
  GI50: > 8.75 µM (inactive)

## COC(=O)[C@H](Cc1ccccc1)NC(=O)N1CCCN(C(=O)N[C@@H](Cc2ccccc2)C(=O)OC)CCCN(C(=O)N[C@@H](Cc2ccccc2)C(=O)OC)CCC1
[1]
  GI50: 17.3 µM (inactive)

## Cc1csc(NCc2ccc(Cl)cc2)n1
[1]
  GI50: 28.9 µM (inactive)

## CCOC(OCC)N1C(=O)C2(C(OCC)OCC)CC3C(OC(=O)N3N)c3cccc1c32 (configuration not stated)
[1]
  GI50: > 100 µM (inactive)

## C=CCCC(=O)C(=[N+]=[N-])C(=O)CCC(=O)c1ccccc1
[1]
  GI50: > 10 µM (inactive)

## CC12OC(=O)[C@@]3(O)CCC4C(C[C@H]5O[C@]56CC=CC(=O)[C@]46C)C45OC[C@H]6C(=O)O[C@@H]1C[C@@]6(C)[C@H](C4=O)C23O5 (some centres not stated)
[1]
  GI50: 1.36 µM (inactive)

## Cc1cccc(/C=N\NC(=S)N2CCCCC2)n1
[1]
  GI50: < 0.01 µM (active)

## Cn1cc[n+](-c2cc(=O)n(C)c(=O)[n-]2)c1
[1]
  GI50: 92.3 µM (inactive)

## c1ccc(CCCC2Sc3cccc4cccc(c34)S2)cc1
[8]
  GI50: > 100 µM (inactive)
[2]
  GI50: > 100 µM (inactive)
[3]
  GI50: > 100 µM (inactive)
[5]
  GI50: 79.1 µM (inactive)
[6]
  GI50: > 100 µM (inactive)
[7]
  GI50: > 100 µM (inactive)

## Cc1nn(-c2ccccc2)c(C)c1/C=N/N=C1\S/C(=C\c2ccc(Cl)cc2)C(=O)N1c1ccccc1
[1]
  GI50: > 100 µM (inactive)

## O=C(O)c1ccc(Cc2ccccc2C(=O)O)cc1
[1]
  GI50: > 100 µM (inactive)

## O=C1C2=Cc3ccccc3OC2(O)Oc2cc(O)cc(O)c21 (configuration not stated)
[1]
  GI50: > 100 µM (inactive)

## Nc1ccc2ncc(Nc3ccc(Cl)c(Cl)c3)nc2c1
[8]
  GI50: 29.6 µM (inactive)
[2]
  GI50: 32.2 µM (inactive)
[3]
  GI50: 13 µM (inactive)
[5]
  GI50: 21.7 µM (inactive)
[6]
  GI50: 23.2 µM (inactive)
[7]
  GI50: 26.9 µM (inactive)

## C[Si](C)(C)C#Cc1cc(-c2nc3ccccc3s2)ccc1N
[1]
  GI50: 18.7 µM (inactive)

## O=C1C([N-]S(=O)(=O)c2ccccc2)=C([n+]2ccc(Cc3ccccc3)cc2)C(=O)c2ccccc21
[1]
  GI50: 3.46 µM (inactive)

## O=c1nc(NC(c2ccccc2)(c2ccccc2)c2ccccc2)ccn1CCO
[8]
  GI50: 39.6 µM (inactive)
[3]
  GI50: 52.7 µM (inactive)
[4]
  GI50: > 100 µM (inactive)
[7]
  GI50: > 100 µM (inactive)

## N=C(N)N/N=C/c1c(Cl)nc2sccn12
[1]
  GI50: 26.5 µM (inactive)

## COc1c2cc([N+](=O)[O-])cc1CN(C(=O)C(F)(F)F)CCOCCN(C(=O)C(F)(F)F)C2
[1]
  GI50: > 100 µM (inactive)

## COc1ccc(C(O)/C(=N/N)c2nc3ccc(Cl)cc3nc2O)cc1 (configuration not stated)
[1]
  GI50: 99.8 µM (inactive)

## Brc1ccc(C[N+]23CN4CN(CN(C4)C2)C3)cc1
[8]
  GI50: > 10 µM (inactive)
[3]
  GI50: 23.6 µM (inactive)
[5]
  GI50: 41.8 µM (inactive)
[6]
  GI50: 22.5 µM (inactive)
[7]
  GI50: 83.2 µM (inactive)

## COP(=O)(OC)c1ccc(NCc2cc(O)ccc2O)cc1
[1]
  GI50: 28.8 µM (inactive)

## CCOC(=O)/C=C(\C(=O)OCC)n1ccc(N)nc1=O
[1]
  GI50: > 100 µM (inactive)

## COc1ccc(C2C(C#N)=C(S)N(C3OC(CO)C(O)C(O)C3O)C(c3ccccc3)=C2C(C)=O)cc1 (configuration not stated)
[1]
  GI50: 6.18 µM (inactive)

## O=C(Nc1ccc2cc3ccccc3cc2c1)c1cc2c(cc1Cl)Sc1nccn1S2(=O)=O
[1]
  GI50: 25.2 µM (inactive)

## COc1cc(C=O)cc(/C=N/c2ccccn2)c1O
[1]
  GI50: 53.3 µM (inactive)

## COc1ccc(/N=N/c2c(C)c(C#N)c(=S)n(C3OC(CO)C(O)C(O)C3O)c2C)cc1 (configuration not stated)
[1]
  GI50: 28.6 µM (inactive)

## c1ccc(-c2sc(-c3ccccc3)c3c2C(c2ccccc2)c2c(-c4ccccc4)sc(-c4ccccc4)c2C3c2ccccc2)cc1 (configuration not stated)
[8]
  GI50: > 100 µM (inactive)
[3]
  GI50: > 100 µM (inactive)
[5]
  GI50: > 100 µM (inactive)
[6]
  GI50: > 100 µM (inactive)
[7]
  GI50: > 100 µM (inactive)

## COc1ccc(N[C@H]([C@@H](c2ccccc2)[S+]([O-])c2ccc(C)cc2)C(F)(F)F)cc1 (some centres not stated)
[1]
  GI50: > 100 µM (inactive)

## CC(=O)c1cc(CC2Cc3cc4c(cc3C2=O)CCC4)cc2c1CCC2 (configuration not stated)
[1]
  GI50: 15.1 µM (inactive)
